Reference: PubChem BioAssay (NCI)
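Five compound concentrations were applied to cells in 96-well plates for 48 hours; endpoints were derived by simple linear interpolation of the resulting dose-response curve. At the GI50, growth is halved. TGI: concentration producing complete growth inhibition.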

Tests used:
Experiment in all cases: growth of human tumour cells (NCI), 48 h
[1] = test system: 786-0 renal
[2] = test system: A498 renal
[3] = test system: A549 NSCLC
[4] = test system: ACHN renal
[5] = test system: BT-549 breast
[6] = test system: CAKI-1 renal
[7] = test system: CCRF-CEM leukemia
[8] = test system: COLO 205 colon
[9] = test system: DU-145 prostate
[10] = test system: EKVX NSCLC
[11] = test system: HCT-116 colon
[12] = test system: HCT-15 colon
[13] = test system: HL-60(TB) leukemia
[14] = test system: HOP-62 NSCLC
[15] = test system: HOP-92 NSCLC
[16] = test system: HS 578T breast
[17] = test system: HT29 colon
[18] = test system: IGROV1 ovarian
[19] = test system: K-562 leukemia
[20] = test system: KM12 colon
[21] = test system: LOX IMVI melanoma
[22] = test system: M14 melanoma
[23] = test system: MALME-3M melanoma
[24] = test system: MCF7 breast
[25] = test system: MDA-MB-231 breast
[26] = test system: MDA-MB-435
[27] = test system: MDA-N
[28] = test system: MOLT-4 leukemia
[29] = test system: NCI-H226 lung
[30] = test system: NCI-H23 lung
[31] = test system: NCI-H460 lung
[32] = test system: NCI-H522 lung
[33] = test system: NCI/ADR-RES ovarian
[34] = test system: OVCAR-3 ovarian
[35] = test system: OVCAR-4 ovarian
[36] = test system: OVCAR-5 ovarian
[37] = test system: OVCAR-8 ovarian
[38] = test system: PC-3 prostate
[39] = test system: RPMI-8226 leukemia
[40] = test system: RXF 393 renal
[41] = test system: SF-268 CNS
[42] = test system: SF-295 CNS
[43] = test system: SF-539 CNS
[44] = test system: SK-MEL-5 melanoma
[45] = test system: SK-OV-3 ovarian
[46] = test system: SN12C renal
[47] = test system: SNB-19 CNS
[48] = test system: SNB-75 CNS
[49] = test system: SR leukemia
[50] = test system: SW-620 colon
[51] = test system: T-47D breast
[52] = test system: TK-10 renal
[53] = test system: U251 CNS
[54] = test system: UACC-257 melanoma
[55] = test system: UACC-62 melanoma
[56] = test system: UO-31 renal
[57] = test system: HCC-2998 colon
[58] = test system: SK-MEL-2 melanoma
[59] = test system: SK-MEL-28 melanoma

Question: Which TGI [1] does the source give for O=c1[nH]c2ccc(Cl)cc2o1 here?
Answer: > 100 µM

Question: And the TGI [2]?
Answer: > 100 µM

Question: And the TGI [3]?
Answer: > 100 µM

Question: What about the TGI [4] of the same molecule?
Answer: > 100 µM

Question: What about the TGI [5] of the same molecule?
Answer: > 100 µM

Question: What about the TGI [6] of the same molecule?
Answer: > 100 µM

Question: What about the TGI [7] of the same molecule?
Answer: > 100 µM

Question: What about the TGI [8] of the same molecule?
Answer: > 100 µM

Question: And the TGI [9]?
Answer: > 100 µM

Question: What about the TGI [10] of the same molecule?
Answer: > 100 µM

Question: And the TGI [11]?
Answer: > 100 µM

Question: What about the TGI [12] of the same molecule?
Answer: > 100 µM

Question: And the TGI [13]?
Answer: > 100 µM

Question: What about the TGI [14] of the same molecule?
Answer: > 100 µM

Question: What about the TGI [15] of the same molecule?
Answer: > 100 µM

Question: What about the TGI [16] of the same molecule?
Answer: > 100 µM

Question: And the TGI [17]?
Answer: > 100 µM

Question: And the TGI [18]?
Answer: > 100 µM

Question: What about the TGI [19] of the same molecule?
Answer: > 100 µM

Question: And the TGI [20]?
Answer: > 100 µM

Question: And the TGI [21]?
Answer: > 100 µM

Question: And the TGI [22]?
Answer: > 100 µM

Question: What about the TGI [23] of the same molecule?
Answer: > 100 µM

Question: What about the TGI [24] of the same molecule?
Answer: > 100 µM

Question: And the TGI [25]?
Answer: > 100 µM

Question: And the TGI [26]?
Answer: > 100 µM

Question: What about the TGI [27] of the same molecule?
Answer: > 100 µM

Question: And the TGI [28]?
Answer: > 100 µM

Question: And the TGI [29]?
Answer: > 100 µM

Question: What about the TGI [30] of the same molecule?
Answer: > 100 µM

Question: What about the TGI [31] of the same molecule?
Answer: > 100 µM

Question: What about the TGI [32] of the same molecule?
Answer: > 100 µM

Question: And the TGI [33]?
Answer: > 100 µM

Question: And the TGI [34]?
Answer: > 100 µM

Question: And the TGI [35]?
Answer: > 100 µM

Question: What about the TGI [36] of the same molecule?
Answer: > 100 µM

Question: What about the TGI [37] of the same molecule?
Answer: > 100 µM

Question: And the TGI [38]?
Answer: > 100 µM

Question: And the TGI [39]?
Answer: > 100 µM

Question: What about the TGI [40] of the same molecule?
Answer: > 100 µM

Question: What about the TGI [41] of the same molecule?
Answer: > 100 µM

Question: And the TGI [42]?
Answer: > 100 µM

Question: And the TGI [43]?
Answer: > 100 µM

Question: What about the TGI [44] of the same molecule?
Answer: > 100 µM

Question: And the TGI [45]?
Answer: > 100 µM

Question: And the TGI [46]?
Answer: > 100 µM

Question: What about the TGI [47] of the same molecule?
Answer: > 100 µM

Question: What about the TGI [48] of the same molecule?
Answer: > 100 µM

Question: And the TGI [49]?
Answer: > 100 µM

Question: And the TGI [50]?
Answer: > 100 µM

Question: And the TGI [51]?
Answer: > 100 µM

Question: What about the TGI [52] of the same molecule?
Answer: > 100 µM

Question: What about the TGI [53] of the same molecule?
Answer: > 100 µM

Question: What about the TGI [54] of the same molecule?
Answer: > 100 µM

Question: And the TGI [55]?
Answer: > 100 µM

Question: And the TGI [56]?
Answer: > 100 µM

Question: Which results are given for Cc1cc2c3c([n+](C)c4ccc(F)cc4c3c1)-c1cc(F)ccc1N2C?
Answer: GI50 [1]: 6.24 µM; TGI [1]: > 100 µM; GI50 [2]: > 100 µM; TGI [2]: > 100 µM; GI50 [3]: 43.5 µM; TGI [3]: > 100 µM; GI50 [4]: 39.1 µM; TGI [4]: > 100 µM; GI50 [5]: 4.63 µM; TGI [5]: 33.9 µM; GI50 [6]: > 100 µM; TGI [6]: > 100 µM; GI50 [7]: 7.17 µM; TGI [7]: > 100 µM; GI50 [8]: 3.5 µM; TGI [8]: 16.3 µM; GI50 [9]: 17.9 µM; TGI [9]: > 100 µM; GI50 [10]: 62.4 µM; TGI [10]: > 100 µM; GI50 [57]: 3.99 µM; TGI [57]: 16.5 µM; GI50 [11]: 19.9 µM; TGI [11]: > 100 µM; GI50 [12]: > 100 µM; TGI [12]: > 100 µM; GI50 [13]: 25.4 µM; TGI [13]: > 100 µM; GI50 [14]: 9.84 µM; TGI [14]: > 100 µM; GI50 [15]: 16.4 µM; TGI [15]: 46 µM; GI50 [16]: 2.4 µM; TGI [16]: 9.77 µM; GI50 [17]: 33.2 µM; TGI [17]: > 100 µM; GI50 [18]: 19.9 µM; TGI [18]: > 100 µM; GI50 [19]: 4.74 µM; TGI [19]: > 100 µM; GI50 [20]: 4.81 µM; TGI [20]: 44.1 µM; GI50 [21]: 20.7 µM; TGI [21]: 68.6 µM; GI50 [22]: 23.4 µM; TGI [22]: 62.9 µM; GI50 [23]: 4.19 µM; TGI [23]: 17.2 µM; GI50 [24]: 14.3 µM; TGI [24]: 44.6 µM; GI50 [25]: 24.3 µM; TGI [25]: 85.3 µM; GI50 [26]: 13.7 µM; TGI [26]: 55 µM; GI50 [27]: 14.3 µM; TGI [27]: > 100 µM; GI50 [28]: 3.28 µM; TGI [28]: > 100 µM; GI50 [29]: 3.41 µM; TGI [29]: 57.3 µM; GI50 [30]: 9.46 µM; TGI [30]: 68.6 µM; GI50 [31]: 15.4 µM; TGI [31]: 49.5 µM; GI50 [32]: 6.86 µM; TGI [32]: 29.4 µM; GI50 [33]: > 100 µM; TGI [33]: > 100 µM; GI50 [34]: 12 µM; TGI [34]: 61.8 µM; GI50 [35]: 22.1 µM; TGI [35]: > 100 µM; GI50 [36]: > 100 µM; TGI [36]: > 100 µM; GI50 [37]: 15.2 µM; TGI [37]: > 100 µM; GI50 [38]: 19.9 µM; TGI [38]: 77.7 µM; GI50 [39]: 5.13 µM; TGI [39]: 36.4 µM; GI50 [40]: > 100 µM; TGI [40]: > 100 µM; GI50 [41]: 2.42 µM; TGI [41]: 14.8 µM; GI50 [42]: 7.54 µM; TGI [42]: > 100 µM; GI50 [43]: 3.28 µM; TGI [43]: 20.6 µM; GI50 [58]: 10.9 µM; TGI [58]: 28.6 µM; GI50 [59]: 9.77 µM; TGI [59]: 34.9 µM; GI50 [44]: 5.29 µM; TGI [44]: 22.1 µM; GI50 [45]: 64.7 µM; TGI [45]: > 100 µM; GI50 [46]: 2.34 µM; TGI [46]: 23.5 µM; GI50 [47]: 4.13 µM; TGI [47]: > 100 µM; GI50 [48]: 11 µM; TGI [48]: 41.5 µM; GI50 [50]: 13.5 µM; TGI [50]: > 100 µM; GI50 [51]: 2.85 µM; TGI [51]: 84 µM; GI50 [52]: 51.8 µM; TGI [52]: > 100 µM; GI50 [53]: 1.69 µM; TGI [53]: > 100 µM; GI50 [54]: 6.2 µM; TGI [54]: 30.5 µM; GI50 [56]: > 100 µM; TGI [56]: > 100 µM
